Laboratory results taken from US20030175678A1, “Methods for identifying genes regulating desired cell phenotypes” (priority 2001, published 2003).

Experiments:
[1] = test system: terpene cyclase; assay: RT-PCR of terpene cyclase in Ajuga reptans cultures; type: cell-based; details: 24 hours after treatment
Procedure: To investigate the pattern of regulation of the terpene cyclase identified as described above, primers were synthesized that corresponded to sequence at each end of the RACE fragment. Ajuga reptans cultures were subject to the treatments described above, and RNA collected eight and 24 hours after treatment. RT-PCR was carried out using an […]™ One-Step RT-PCR kit (Clontech Laboratories, Palo Alto, Calif.). […] The primers also appear to be amplifying a constitutive cyclase.

[2] = test system: PAL, CHS, and F3-OH; assay: Quantitative RT-PCR of PAL, CHS and F3-OH transcripts in C. dejecta cells; type: cell-based, Crassula dejecta; details: after 48 hours
Procedure: Differential induction of mRNA transcripts associated with the synthesis of catechin derivatives in the C. barkleyi suspension culture (as described in Example 2) and the C. dejecta suspension culture (as described in Example 3) were performed in 250 mL conical flasks containing 100 mL of a secondary metabolite production medium B49 (Gamborg's B5, 5% sucrose, no hormones), inoculated with 16 mL of a 14 day old suspension culture (C. barkleyi) or 40 mL of a 21 day old suspension culture (C. dejecta). The cultures were incubated under low light conditions (approximately 30 lux) at 25° C.
Induction of mRNA usually occurs within 48 hours of receipt of an inducing signal. Accordingly, samples were taken at intervals of 2, 4, 6, 10, 15, 24, and 48 hours following the above treatments. Samples, sufficient to give at least 1 mL packed cell volume, were centrifuged for five minutes at 4000 rpm and the supernatant removed. […]
This mixture was incubated at 42° C. for 50 min then denatured at 70° C. for 15 min and stored at −20° C., after a thirty-fold dilution with distilled water. An aliquot of this reaction was then used to quantify the relative abundance of each of the three genes (PAL, CHS, F3-OH) to the invariant one (TBP), using a real time quantification PCR machine (Perkin Elmer 7700) and the previously described oligonucleotides (shown in FIG. 7) in the following conditions: […]

[3] = test system: Ajuga reptans suspension culture; assay: Differential induction of diterpenes (Compound 6) in Ajuga reptans suspension culture; type: cell-based; details: B49 production medium, treated day 7, harvested after a further seven days, n = 3
Procedure: Differential induction of diterpenoids in the Ajuga reptans suspension culture was performed by inoculating 500 mL conical flasks containing 190 mL of a secondary metabolite production medium B49 (Gamborg's B5, 5% sucrose, no hormones), with 70 mL of 14 day old suspension culture. The culture was incubated at 25° C. in continuous low light and shaken at 140 rpm. Cultures were grown for seven days (25° C. in continuous low light and shaken at 140 rpm) and then dispensed as 5 mL aliquots to 6-well plates (Bibby Sterilin Ltd, Stone, UK). Cultures were then treated using one of the following protocols:
Triplicate samples were set up for each treatment. Cultures were incubated for a further seven days before harvest for extraction and analysis of diterpenoids.
Cultures were harvested by freezing entire 6-well plates at −20° C. and then freeze-drying cultures in situ. […] After standing for one hour 500 μL of filtered methanol extract was removed and immediately analyzed.
HPLC analysis was carried out using an Xterra RP 18 column (dimensions 3×150 mm with 5 μm packing) using an isocratic solvent system of water (two volumes): acetonitrile (three volumes) to which has been added 0.1% acetic acid. […] The eluate was monitored by UV absorption. The principal diterpene metabolite (Compound 6) has UV absorption maxima at 230, 290 and 340 nm and can be sensitively monitored at any of these wavelengths. […]

[4] = test system: C. dejecta suspension culture; assay: Differential induction of catechin accumulation in Crassula dejecta suspension culture; type: cell-based
Procedure: Differential induction of catechin derivatives in the C. dejecta suspension culture was performed in 250 mL conical flasks containing 100 mL of B105 growth medium or 100 mL of a secondary metabolite production medium B49 (Gamborg's B5, with 5% sucrose, and no hormones), inoculated with 40 mL of 21 day old suspension culture. The cultures were incubated under low light conditions (approximately 30 lux) at 25° C. Cultures were treated using one of each of the following protocols:
(1) B105 growth medium (no additions) used as is;
(3) Filter-sterilized aqueous zeatin (10 μM) was added at day 7 to a culture grown on B105 medium;
(4) B49 production medium (no additions) used as is;
(6) Filter-sterilized clofibrate (0.5 mM final concentration) was added at day 7 to a culture grown on B49 medium. Ten milliliters of culture samples were taken at regular intervals for 17 days following the day of subculture to B105 or B49 medium. All culture samples were centrifuged for five minutes at 4000 rpm, and the cell residue was freeze-dried. Extraction, sample preparation, and HPLC analysis were performed as described in Example 1.

SMILES: CC/C=C\CC1C(=O)CCC1CC(=O)OC (centres unmarked) [methyl jasmonate]
- induction of terpene cyclase (RT-PCR) [1]: induced
- induction of PAL, CHS, and F3-OH genes [2]: at least 6 fold
- Compound 6 (mg/L culture) Mean [3]: 9.52 mg/L culture
- induction of EGCG and other catechins ([4]; cultures grown on both B105 and B49 media, added at day 7): induced EGCG and other catechins
- accumulation of EGCG ([4]; on B49, methyl jasmonate added at day 7): ten-fold
